# Results as given in paper PMC5218480 (PLoS ONE, 2017).
# System: MV-4-11 cells
# Test: Gene expression microarray analysis (Affymetrix PrimeView) and GSEA
# Type: cell-based, human
# Set-up: RFU PODN (11730768_x_at) / Fold change /veh PODN (11730768_x_at) / RFU LINC00158 (11744669_a_at) / Fold change /veh LINC00158 (11744669_a_at) / RFU DUSP10 (11751237_a_at) / Fold change /veh DUSP10 (11751237_a_at) / RFU ID3 (11757404_x_at) / Fold change /veh ID3 (11757404_x_at) / RFU PLEKHG5 (11737974_s_at) / Fold change /veh PLEKHG5 (11737974_s_at) / RFU LRRC4B (11730491_at) / Fold change /veh LRRC4B (11730491_at) / RFU GIMAP4 (11747438_a_at) / Fold change /veh GIMAP4 (11747438_a_at) / RFU KRT8 (11758183_x_at) / Fold change /veh KRT8 (11758183_x_at) / RFU CNN1 (11734310_a_at) / Fold change /veh CNN1 (11734310_a_at) / RFU VPS37D (11726825_at) / Fold change /veh VPS37D (11726825_at) / RFU C10orf10 (11716522_x_at) / Fold change /veh C10orf10 (11716522_x_at) / RFU KIR2DL2 /// KIR2DL4 /// KIR2DL5A /// KIR2DL5B /// KIR2DS1 /// KIR2DS2 /// KIR2DS3 /// KIR2DS4 /// KIR3DL3 /// KIR3DL3 /// KIR3DS1 (11738374_at) / Fold change /veh KIR2DL2 /// KIR2DL4 /// KIR2DL5A /// KIR2DL5B /// KIR2DS1 /// KIR2DS2 /// KIR2DS3 /// KIR2DS4 /// KIR3DL3 /// KIR3DL3 /// KIR3DS1 (11738374_at) / RFU C1QL1 (11718748_at) / Fold change /veh C1QL1 (11718748_at) / RFU TMPRSS4 (11747572_a_at) / Fold change /veh TMPRSS4 (11747572_a_at) / RFU HAMP (11756126_x_at) / Fold change /veh HAMP (11756126_x_at) / RFU RNFT2 (11725882_a_at) / Fold change /veh RNFT2 (11725882_a_at) / RFU NR4A2 (11747474_a_at) / Fold change /veh NR4A2 (11747474_a_at) / RFU ABCC12 (11746883_a_at) / Fold change /veh ABCC12 (11746883_a_at) / RFU TMEM136 (11760407_x_at) / Fold change /veh TMEM136 (11760407_x_at) / RFU CLDN22 /// WWC2 (11732394_at) / Fold change /veh CLDN22 /// WWC2 (11732394_at) / RFU HLA-DPB1 (11760878_x_at) / Fold change /veh HLA-DPB1 (11760878_x_at) / RFU SPINT1 (11716480_a_at) / Fold change /veh SPINT1 (11716480_a_at) / RFU GAP43 (11754022_s_at) / Fold change /veh GAP43 (11754022_s_at) / RFU A4GNT (11735810_at) / Fold change /veh A4GNT (11735810_at) / RFU PRB3 (11715151_x_at) / Fold change /veh PRB3 (11715151_x_at) / RFU TUBB4B (11761932_at) / Fold change /veh TUBB4B (11761932_at) / RFU CAPN14 (11732068_a_at) / Fold change /veh CAPN14 (11732068_a_at) / RFU TMCC2 (11721928_a_at) / Fold change /veh TMCC2 (11721928_a_at) / RFU IRGQ (11745062_a_at) / Fold change /veh IRGQ (11745062_a_at) / RFU FAM174B (11720279_a_at) / Fold change /veh FAM174B (11720279_a_at) / RFU TMPRSS4 (11748680_a_at) / Fold change /veh TMPRSS4 (11748680_a_at) / RFU FAM212B (11763350_a_at) / Fold change /veh FAM212B (11763350_a_at) / RFU PLEKHG5 (11743358_a_at) / Fold change /veh PLEKHG5 (11743358_a_at) / RFU ZSCAN30 (11745921_a_at) / Fold change /veh ZSCAN30 (11745921_a_at) / RFU CMKLR1 (11741424_a_at) / Fold change /veh CMKLR1 (11741424_a_at) / RFU LOC101060620 /// MAPK8IP1 (11723275_at) / Fold change /veh LOC101060620 /// MAPK8IP1 (11723275_at) / RFU SPTSSB (11747773_x_at) / Fold change /veh SPTSSB (11747773_x_at) / RFU PRSS12 (11739890_at) / Fold change /veh PRSS12 (11739890_at) / RFU BIN1 (11741810_x_at) / Fold change /veh BIN1 (11741810_x_at) / RFU WNT11 (11732464_a_at) / Fold change /veh WNT11 (11732464_a_at) / RFU C10orf10 (11716521_a_at) / Fold change /veh C10orf10 (11716521_a_at) / RFU C5orf56 (11738089_at) / Fold change /veh C5orf56 (11738089_at) / RFU CYB561 (11721691_x_at) / Fold change /veh CYB561 (11721691_x_at) / RFU ANKRD19P (11752326_a_at) / Fold change /veh ANKRD19P (11752326_a_at) / RFU OR2T12 /// OR2T33 /// OR2T8 (11738714_s_at) / Fold change /veh OR2T12 /// OR2T33 /// OR2T8 (11738714_s_at) / RFU VCAN (11748164_a_at) / Fold change /veh VCAN (11748164_a_at) / RFU JSRP1 (11732532_at) / Fold change /veh JSRP1 (11732532_at) / RFU KRTAP10-11 (11738290_x_at) / Fold change /veh KRTAP10-11 (11738290_x_at) / RFU MYO3A (11730013_a_at) / Fold change /veh MYO3A (11730013_a_at) / RFU EBF3 (11725865_a_at) / Fold change /veh EBF3 (11725865_a_at) / RFU CAMK2N1 (11719241_x_at) / Fold change /veh CAMK2N1 (11719241_x_at) / RFU C5orf56 (11738088_a_at) / Fold change /veh C5orf56 (11738088_a_at) / RFU OLFML3 (11715873_a_at) / Fold change /veh OLFML3 (11715873_a_at) / RFU LOC100653217 /// NTM (11731650_a_at) / Fold change /veh LOC100653217 /// NTM (11731650_a_at) / RFU MAPK11 (11762145_a_at) / Fold change /veh MAPK11 (11762145_a_at) / RFU FIZ1 (11724087_x_at) / Fold change /veh FIZ1 (11724087_x_at) / RFU OASL (11726364_x_at) / Fold change /veh OASL (11726364_x_at) / RFU SOX15 (11748057_x_at) / Fold change /veh SOX15 (11748057_x_at) / RFU CD79A (11719716_a_at) / Fold change /veh CD79A (11719716_a_at) / RFU HIST1H1D (11736915_at) / Fold change /veh HIST1H1D (11736915_at) / RFU CASKIN2 (11723855_a_at) / Fold change /veh CASKIN2 (11723855_a_at) / RFU LOC730098 (11760151_x_at) / Fold change /veh LOC730098 (11760151_x_at) / RFU OR4N2 (11742367_at) / Fold change /veh OR4N2 (11742367_at) / RFU PRRT2 (11749266_a_at) / Fold change /veh PRRT2 (11749266_a_at) / RFU SNX32 (11753110_a_at) / Fold change /veh SNX32 (11753110_a_at) / RFU CDHR5 (11726645_a_at) / Fold change /veh CDHR5 (11726645_a_at) / RFU RCAN1 (11760418_a_at) / Fold change /veh RCAN1 (11760418_a_at) / RFU FAM167A (11723789_a_at) / Fold change /veh FAM167A (11723789_a_at) / RFU FAM26E (11764081_at) / Fold change /veh FAM26E (11764081_at) / RFU ISYNA1 (11749810_s_at) / Fold change /veh ISYNA1 (11749810_s_at) / RFU ACY1 (11761880_at) / Fold change /veh ACY1 (11761880_at) / RFU 11764098_at / Fold change /veh 11764098_at / RFU SAMD14 (11745864_x_at) / Fold change /veh SAMD14 (11745864_x_at) / RFU NPB (11741838_a_at) / Fold change /veh NPB (11741838_a_at) / RFU TMPRSS6 (11731388_a_at) / Fold change /veh TMPRSS6 (11731388_a_at) / RFU KRTAP10-2 (11738614_at) / Fold change /veh KRTAP10-2 (11738614_at) / RFU ARHGAP8 /// PRR5-ARHGAP8 (11727945_x_at) / Fold change /veh ARHGAP8 /// PRR5-ARHGAP8 (11727945_x_at) / RFU KRTAP5-7 /// NADSYN1 (11734609_at) / Fold change /veh KRTAP5-7 /// NADSYN1 (11734609_at) / RFU RASL12 (11751679_a_at) / Fold change /veh RASL12 (11751679_a_at) / RFU CDKN2B (11736163_a_at) / Fold change /veh CDKN2B (11736163_a_at) / RFU PRF1 (11729649_at) / Fold change /veh PRF1 (11729649_at) / RFU, ZNF638 /// ZNF638-IT1 / Fold change vs veh, ZNF638 /// ZNF638-IT1 / RFU, PANK3 / Fold change vs veh, PANK3 / RFU, SH3YL1 / Fold change vs veh, SH3YL1 / RFU, ZEB2 / Fold change vs veh, ZEB2 / RFU, NRIP1 / Fold change vs veh, NRIP1 / RFU, PTTG1IP / Fold change vs veh, PTTG1IP / RFU, CAPN2 / Fold change vs veh, CAPN2 / RFU, MED14 / Fold change vs veh, MED14 / RFU, SNORA58 / Fold change vs veh, SNORA58 / RFU, C1orf63 / Fold change vs veh, C1orf63 / RFU, LRRFIP1 / Fold change vs veh, LRRFIP1 / RFU, NDUFAF7 / Fold change vs veh, NDUFAF7 / RFU, SLC12A2 / Fold change vs veh, SLC12A2 / RFU, IBTK / Fold change vs veh, IBTK / RFU, ESF1 / Fold change vs veh, ESF1 / Fold change vs veh, TMEM50B / RFU, TAOK1 / Fold change vs veh, TAOK1 / RFU, ACBD3 / Fold change vs veh, ACBD3 / RFU, TMA16 / Fold change vs veh, TMA16 / RFU, RWDD3 / Fold change vs veh, RWDD3 / RFU, BCAT1 / Fold change vs veh, BCAT1 / RFU, EDEM3 / Fold change vs veh, EDEM3 / RFU, TMEM33 / Fold change vs veh, TMEM33 / RFU, WDR75 / Fold change vs veh, WDR75 / RFU, AHCTF1 / Fold change vs veh, AHCTF1 / RFU, TFRC / Fold change vs veh, TFRC / RFU, ZDHHC17 / Fold change vs veh, ZDHHC17 / RFU, NOM1 / Fold change vs veh, NOM1 / RFU, ARL8B / Fold change vs veh, ARL8B / RFU, ZBTB11 / Fold change vs veh, ZBTB11 / RFU, TAMM41 / Fold change vs veh, TAMM41 / RFU, KIAA1704 /// LOC100996395 / Fold change vs veh, KIAA1704 /// LOC100996395 / RFU, ING1 / Fold change vs veh, ING1 / RFU, TRMT61B / Fold change vs veh, TRMT61B / RFU, FUBP3 / Fold change vs veh, FUBP3 / RFU, TP53 / Fold change vs veh, TP53 / RFU, TNKS2 / Fold change vs veh, TNKS2 / RFU, ZFP14 / Fold change vs veh, ZFP14 / RFU, ACTR2 / Fold change vs veh, ACTR2 / RFU, PPP3R1 / Fold change vs veh, PPP3R1 / RFU, PIK3R1 / Fold change vs veh, PIK3R1 / RFU, HNRNPA1 / Fold change vs veh, HNRNPA1 / RFU, RNF170 / Fold change vs veh, RNF170 / RFU, ZNF28 / Fold change vs veh, ZNF28 / RFU, RNGTT / Fold change vs veh, RNGTT / RFU, OGT / Fold change vs veh, OGT / RFU, BRD1 / Fold change vs veh, BRD1 / RFU, MARS / Fold change vs veh, MARS / RFU, ZNF655 / Fold change vs veh, ZNF655 / RFU, FAHD1 / Fold change vs veh, FAHD1 / RFU, BDP1 / Fold change vs veh, BDP1 / RFU, LRRCC1 / Fold change vs veh, LRRCC1 / RFU, ARID1A / Fold change vs veh, ARID1A / RFU, ZNF146 / Fold change vs veh, ZNF146 / RFU, ZNF330 / Fold change vs veh, ZNF330 / RFU, GPN3 / Fold change vs veh, GPN3 / RFU, C9orf123 / Fold change vs veh, C9orf123 / RFU, N4BP2L2 / Fold change vs veh, N4BP2L2 / RFU, ARFIP1 / Fold change vs veh, ARFIP1 / RFU, FAM179B / Fold change vs veh, FAM179B / RFU, BCL10 / Fold change vs veh, BCL10 / RFU, UHRF1BP1L / Fold change vs veh, UHRF1BP1L / RFU, BET1 / Fold change vs veh, BET1 / RFU, CNOT2 / Fold change vs veh, CNOT2 / RFU, ZNF268 / Fold change vs veh, ZNF268 / Fold change vs veh, ZNF507 / RFU, DGCR2 / Fold change vs veh, DGCR2 / RFU, WDSUB1 / Fold change vs veh, WDSUB1 / Fold change vs veh, HSP90B1 /// MIR3652 / RFU, ADSS / Fold change vs veh, ADSS / RFU, GK / Fold change vs veh, GK / RFU, ZNF148 / Fold change vs veh, ZNF148 / RFU, TAF9 / Fold change vs veh, TAF9 / RFU, SLC1A5 / Fold change vs veh, SLC1A5 / RFU, SLMO2 / Fold change vs veh, SLMO2 / RFU, ABCC4 / Fold change vs veh, ABCC4 / RFU, LOC101060439 /// RAP1B / Fold change vs veh, LOC101060439 /// RAP1B / RFU, RFX7 / Fold change vs veh, RFX7 / RFU, GTPBP10 / Fold change vs veh, GTPBP10 / RFU, CNEP1R1 / Fold change vs veh, CNEP1R1 / RFU, BIVM-ERCC5 /// ERCC5 / Fold change vs veh, BIVM-ERCC5 /// ERCC5 / RFU, ILF3 / Fold change vs veh, ILF3 / RFU 11762660_at / Fold change /veh 11762660_at / RFU VCAN (11757783_s_at) / Fold change /veh VCAN (11757783_s_at) / RFU DDX43 (11728927_at) / Fold change /veh DDX43 (11728927_at) / RFU KRT8 (11758188_x_at) / Fold change /veh KRT8 (11758188_x_at) / RFU NKD1 (11759106_at) / Fold change /veh NKD1 (11759106_at) / RFU SRD5A1 (11742802_a_at) / Fold change /veh SRD5A1 (11742802_a_at) / RFU TPSAB1 /// TPSB2 (11721975_s_at) / Fold change /veh TPSAB1 /// TPSB2 (11721975_s_at) / RFU GSTM3 (11746129_a_at) / Fold change /veh GSTM3 (11746129_a_at) / RFU IL23R (11737362_x_at) / Fold change /veh IL23R (11737362_x_at) / RFU TMEM51 (11727254_a_at) / Fold change /veh TMEM51 (11727254_a_at) / RFU PIWIL2 (11732686_x_at) / Fold change /veh PIWIL2 (11732686_x_at) / RFU ORM1 (11744905_x_at) / Fold change /veh ORM1 (11744905_x_at) / RFU CCDC152 (11743942_at) / Fold change /veh CCDC152 (11743942_at) / RFU ECM1 (11717891_a_at) / Fold change /veh ECM1 (11717891_a_at) / RFU IL23R (11748794_a_at) / Fold change /veh IL23R (11748794_a_at) / RFU TNFAIP8L3 (11732012_x_at) / Fold change /veh TNFAIP8L3 (11732012_x_at) / RFU MBOAT4 (11741988_at) / Fold change /veh MBOAT4 (11741988_at) / RFU 11764193_at / Fold change /veh 11764193_at / RFU TMEM53 (11763286_at) / Fold change /veh TMEM53 (11763286_at) / RFU MAGEB2 (11727129_at) / Fold change /veh MAGEB2 (11727129_at) / RFU TMEM200A (11744735_a_at) / Fold change /veh TMEM200A (11744735_a_at) / RFU CCDC152 (11751479_a_at) / Fold change /veh CCDC152 (11751479_a_at) / RFU FAM211A (11726209_a_at) / Fold change /veh FAM211A (11726209_a_at) / RFU RGS16 (11746705_a_at) / Fold change /veh RGS16 (11746705_a_at) / RFU VCAN (11755009_s_at) / Fold change /veh VCAN (11755009_s_at) / RFU RHOB (11743442_s_at) / Fold change /veh RHOB (11743442_s_at) / RFU RGS16 (11720943_a_at) / Fold change /veh RGS16 (11720943_a_at) / RFU RGS16 (11720944_at) / Fold change /veh RGS16 (11720944_at) / RFU, VPS4B / Fold change vs veh, VPS4B / RFU, CREB1 / Fold change vs veh, CREB1 / RFU, DNAJC13 / Fold change vs veh, DNAJC13 / RFU, GNAQ / Fold change vs veh, GNAQ / RFU, CDK5R1 / Fold change vs veh, CDK5R1 / RFU, ZRANB3 / Fold change vs veh, ZRANB3 / RFU, CUL4A / Fold change vs veh, CUL4A / RFU, CCNY / Fold change vs veh, CCNY / RFU, UFL1 / Fold change vs veh, UFL1 / RFU, COG3 / Fold change vs veh, COG3 / RFU, DIAPH2 / Fold change vs veh, DIAPH2 / RFU, SKA2 / Fold change vs veh, SKA2 / RFU, AFF3 / Fold change vs veh, AFF3 / RFU, LMF1 / Fold change vs veh, LMF1 / RFU, IPO11 / Fold change vs veh, IPO11 / RFU, DFFB / Fold change vs veh, DFFB / RFU, FOXP1 / Fold change vs veh, FOXP1 / RFU, CARD8 / Fold change vs veh, CARD8 / RFU, STRN3 / Fold change vs veh, STRN3 / RFU, ADK / Fold change vs veh, ADK / RFU, RASSF2 / Fold change vs veh, RASSF2 / RFU, WIPF1 / Fold change vs veh, WIPF1 / RFU, LARP1B / Fold change vs veh, LARP1B / RFU, RASA1 / Fold change vs veh, RASA1 / RFU, RB1 / Fold change vs veh, RB1 / RFU, PPFIA1 / Fold change vs veh, PPFIA1 / RFU, MAT2A / Fold change vs veh, MAT2A / RFU, CCT5 / Fold change vs veh, CCT5 / RFU, WDR92 / Fold change vs veh, WDR92 / RFU, CUX1 / Fold change vs veh, CUX1 / RFU, TTC7A / Fold change vs veh, TTC7A / RFU, TMEM135 / Fold change vs veh, TMEM135 / RFU, DEPTOR / Fold change vs veh, DEPTOR / RFU, CPM / Fold change vs veh, CPM / RFU, DNAJB6 / Fold change vs veh, DNAJB6 / RFU, CACNA2D3 / Fold change vs veh, CACNA2D3 / RFU, DTX4 / Fold change vs veh, DTX4 / RFU, TFCP2 / Fold change vs veh, TFCP2 / RFU, GMCL1 /// GMCL1P1 / Fold change vs veh, GMCL1 /// GMCL1P1 / RFU, AEBP2 / Fold change vs veh, AEBP2 / RFU, SNHG1 /// SNORD22 /// SNORD25 /// SNORD26 /// SNORD27 /// SNORD28 /// SNORD29 /// SNORD31 / Fold change vs veh, SNHG1 /// SNORD22 /// SNORD25 /// SNORD26 /// SNORD27 /// SNORD28 /// SNORD29 /// SNORD31 / Fold change (Aza/veh), C12orf56 (ProbeSet 11735607_a_at) / Fold change (ACY-1035/veh), C12orf56 (ProbeSet 11735607_a_at) / Fold change (Aza/veh), FGFR1OP (ProbeSet 11751329_s_at) / Fold change (ACY-1035/veh), FGFR1OP (ProbeSet 11751329_s_at) / Fold change (Aza/veh), VPS36 (ProbeSet 11739960_a_at) / Fold change (ACY-1035/veh), VPS36 (ProbeSet 11739960_a_at) / RFU SYPL1 (11715823_x_at) / Fold change /veh SYPL1 (11715823_x_at) / RFU IGFBP7 (11715501_s_at) / Fold change /veh IGFBP7 (11715501_s_at) / RFU REEP3 (11722064_at) / Fold change /veh REEP3 (11722064_at) / RFU IGLL1 (11728026_x_at) / Fold change /veh IGLL1 (11728026_x_at): dose or concentration left out as unconfirmed
# Details: MV-4-11 cells, 48 hours
smiles,measurement,value
Nc1ncn([C@@H]2O[C@H](CO)[C@@H](O)[C@H]2O)c(=O)n1 [azacitidine],Fold change /veh ANKRD19P (11752326_a_at),1.10
